One data set deals with LFA-1. As to the kind of experiment: β2 integrin/ICAM-1 homotypic (cell:cell) binding of 8866 cells. Type of data set: cell-based, human. From the text:
The following experiment describes the inhibition of homotypic (cell:cell) binding of β2 and ICAM-1 expressing cells by asperlin. 8866 cells, a human B-cell line, were supplied by Athena Neurosciences (San Francisco, Calif.). These cells constitutively express both the β2 integrin referred to as LFA-1, and ICAM-1 on the cell surface. In culture, 8866 cells spontaneously bind, or clump together, as a result of β2 integrin binding to ICAM-1.
8866 cells were maintained in RPMI 1640 culture media (refer to Example I) supplemented with […] HEPES buffer (Gibco No. 15630-080). Cells were subcultured when the cell density was approximately 1×10^6 cells/ml. […]
8866 cells were harvested by centrifuging 5 minutes, at 1000 rpm, room temperature, in a Sorvall RT6000 centrifuge. The cell pellet was resuspended in culture media and cells were counted using a hemacytometer. […]
Asperlin was solubilized in 100% DMSO at a concentration of 20 mg/ml, 10 mg/ml, 5 mg/ml, and 2.5 mg/ml. […] The progression of homotypic binding was monitored by microscopic observations after 1 and 2 hours of incubation.
Inhibition β2 integrin dependent homotypic binding to ICAM-1 by asperlin was photographically recorded using a Nikon 35 mm camera attached to a Nikon Diaphot 300 inverted microscope (filter setting NCBII, objective 10×, and light setting of photo).

The test system of a further data set is HL60 cells. In words: MTT cytotoxicity assay, HL60 cells. Type of data set: cell-based. The conditions noted are these: for Average Optical Density: HL60, 30 min. From the text:
(§1) This experiment describes the affect of asperlin on cellular respiration (mitochondrial activity) by measuring the reduction of the tetrazolium salt MTT to formazan crystals (Moseman, et al). This assay served as a control to ensure that the decrease in the fluorescence observed in Example I, Table I, was not the result of the fluorescent dye leaking from the cells due to disruption of the cell membrane. To address this issue, the mitochondrial activity of β2 and β1 integrin expressing cells in the presence of asperlin was quantitated using a commercially available MTT cytotoxicity kit (Promega No. G4100).
(§2) HL60 and U937 cells were purchased from the American Type Culture Collection (ATCC) and maintained in RPMI 1640 culture media containing 10% heat inactivated fetal bovine serum (refer to Example I, materials). HL60 cells were used between passages 20 and 30. HL60 cells were stimulated by a four day exposure to DMSO, as described in Example I, materials. Falcon round bottom tissue culture plates (No. 3077) were used for the experiment. All remaining reagents were supplied in Promega's MTT cytotoxicity kit (Catalog No. G4100).
(§3) The assay procedure described in the Promega MTT kit was used with the following changes.
(§4) Asperlin was solubilized in 100% DMSO at a concentration of 50 mg/ml. The 50 mg/ml asperlin stock was diluted to 400 μg/ml with culture media containing 5% fetal bovine serum (FBS). This solution was further diluted to 80 and 20 μg/ml with culture media supplemented with 5% FBS plus 2% DMSO. 50 μl of the 20 and 80 μg/ml asperlin solutions were added to wells of a sterile, round bottom 96 well assay plate. Control wells received 50 μl of culture media containing 5% FBS plus 2% DMSO. Duplicate assay wells were prepared such that U937 and HL60 cells could be evaluated on the same plate. The cell density of β1 integrin expressing U937, and β2 integrin expressing HL60 cell cultures were determined using a hemacytometer.
(§5) Cells were harvested by centrifuging for 5 minutes at 1000 rpm, room temperature, in a Sorvall RT600 bench-top centrifuge. The HL60 cell pellet was resuspended in fresh culture media at a concentration of 5×10^6 cells/ml. The U937 cell pellet was resuspended in fresh culture media at a concentration of 2.5×10^6 cells/ml. 2.5×10^5 β2 integrin expressing HL60 cells, contained in 50 μl, were added to wells of the assay plate using a multichannel pipettor. In duplicate assay wells, 1.25×10^5 β1 integrin expressing U937 cells, contained in 50 μl, were added to wells of the assay plate using a multichannel pipettor. Assay plates were incubated for either 30 minutes, 60 minutes, or 4 hours in a 37° C. 5% CO2, humidified incubator.
(§6) At the appropriate time point, 15 μl of MTT reagent, supplied in the Promega assay kit, was added to each well using a multichannel pipettor. Assay plates were incubated in the 37° C. incubator, as just described, for two hours. The MTT reduction reaction was quenched, and the visible formazan crystals were solubilized by adding exactly 100 μl of Promega's solubilization buffer to each well. […] The optical density (OD) of each well of the assay plate was determined using a microtiter plate reader (Flow Labs) set at a wavelength of 580 nm with a correction wavelength of 630 nm.
(§7) Replicate sample ODs were average. The percentage of inhibition of cellular respiration (mitochondrial activity) by asperlin was quantitated by the following equation: […]
In general terms: Tetrazolium dyes change colour on reduction, which living cells bring about.

Data set [1] is described as follows: MTT cytotoxicity assay, HL60 cells. The conditions noted are these: human, hl60 cells, HL60, 30 min., read-out: % Inhibition MTT Reduction. The data set is classed as cell-based.
Description: as §1, §2, §3, §4, §5, §6, §7

In a further data set the test system is U937 cells. In words: MTT cytotoxicity assay, U937 cells. Type of data set: cell-based, human. Particulars: for Average Optical Density / Optical Density: U937, 30 min.; for Optical Density: single well, 580 nm.
Description: as §1, §2, §3, §4, §5
(§8) At the appropriate time point, 15 μl of MTT reagent, supplied in the Promega assay kit, was added to each well using a multichannel pipettor. Assay plates were incubated in the 37° C. incubator, as just described, for two hours. The MTT reduction reaction was quenched, and the visible formazan crystals were solubilized by adding exactly 100 μl of Promega's solubilization buffer to each well. Assay plates were incubated for at least 18 hours in the same 37° C. incubator just described to solubilize the formazan reagent. Assay plates were removed from the incubator and allowed to cool to room temperature. The optical density (OD) of each well of the assay plate was determined using a microtiter plate reader (Flow Labs) set at a wavelength of 580 nm with a correction wavelength of 630 nm.
(§9) Replicate sample ODs were average. The percentage of inhibition of cellular respiration (mitochondrial activity) by asperlin was quantitated by the following equation:
(§10) % Inhibition=(1-(Sample OD.div.Average Control OD))×100

Data set [2] in a line: MTT cytotoxicity assay, U937 cells. Type of data set: cell-based, human. The conditions noted are these: human, u937 cells, U937, 30 min., read-out: % Inhibition MTT Reduction.
Description: as §1, §2, §3, §4, §5, §8, §9, §10

Values joined by “and” are separate entries in the source; they are usually repeats but may differ in a detail not shown here. Equal entries are not always repeated.

On to `CC(=O)OC1C=CC(=O)OC1C1OC1C` [Asperlin, 6,7-Anhydro-2,3,8-trideoxy-D-galacto-oct-2-enoic acidδ-lactone 4-acetate], for which the “Inhibition of 8866 cell homotypic binding, visual inspection (in words)” value in the data set on LFA-1 (after 1 hour of incubation) is listed as “inhibit cell--cell binding in a dose dependent manner”; in the data set with LFA-1 (after 2 hours of incubation), “inhibited 8866, β2 integrin mediated homotypic binding to ICAM-1 in a dose dependent manner”. Also, the “Average Optical Density” value in the data set on HL60 cells (Asperlin 10 μg/mL) was “.819”; in the data set with HL60 cells (Asperlin 40 μg/mL), “.649”; in the data set with U937 cells (Asperlin 10 μg/mL), 1.532; with U937 cells (Asperlin 40 μg/mL) it was 1.386. Further, the “Cytotoxicity (in words)” value with HL60 cells (β2 integrin expressing HL60 cells) and in the data set with U937 cells (β1 integrin expressing U937 cells) was “not cytotoxic” throughout. Besides, the cytotoxicity at 0.5 h in data set [1] (Asperlin 10 μg/mL) was determined as 8%; in data set [1] (Asperlin 40 μg/mL), 27%; in data set [2] (Asperlin 10 μg/mL) it was 0%; in data set [2] (Asperlin 40 μg/mL), 11%. Further, the “Optical Density” value with U937 cells (Asperlin 10 μg/mL) is 1.410 and 1.601 and 1.584; in the data set with U937 cells (Asperlin 40 μg/mL), 1.362 and 1.352 and 1.391.
